From US7056509B2 (Board of Regents The University of Texas System, priority 1999, dated 2006)

What was measured:
[1] = test system: NCI-H358 NSCLC tumors; test: In vivo tumor therapy, established NCI-H358 xenografts; parameters: species or system mouse
Experimental: (§1) Male nu/nu mice bearing subcutaneous NCI-H358 tumors or HT1080 fibrosarcoma 200–400 mm^3 in size were injected i.p. with test or control antibodies. The NCI-H358 bearing mice were treated with 100 μg of antibodies per injection three times a week during the first week and twice a week during the second and third week. The mice were then switched to 50 μg per injection every five days. The HT1080 bearing mice were treated with 100 μg of the indicated antibody or saline every other day throughout the duration of the study. In both studies, mice were sacrificed when their tumors reached 2500 mm^3 in size or earlier if tumors began to ulcerate.
Doses were 50–100 μg every 3–5 days. […] In addition to measuring mean tumor volume (FIG. 4), photographs of the mice from each treatment group were also taken to show the differences in tumor size and appearance at the end of the study.

[2] = test system: NCI-H358 NSCLC; test: In vivo tumor growth inhibition, newly-implanted NCI-H358; parameters: species or system mouse
Experimental: (§2) Nu/nu mice were injected subcutaneously with either 1×10^7 NCI-H358 NSCLC cells or 5×10^6 A673 rhabdomyosarcoma cells on day 0. […] The tumors were then measured twice per wk for a period of approximately six wk for the NCI-H358 bearing mice and four wk for the A673 bearing mice. Tumor volume was calculated according to the formula: volume=L×W×H, where L=length, W=width, H=height.

[3] = test system: A673 rhabdomyosarcoma; test: In vivo tumor growth inhibition, newly-implanted A673; parameters: species or system mouse
Experimental: as §2

[4] = test system: VEGFR2 in PAE/KDR cells; test: VEGF-induced phosphorylation of VEGFR2 (immunoprecipitation and western blot); format: cell-based, porcine; details: antibody at 100 nM, 15 min
Experimental: PAE/KDR, PAE/FLT, and bEND.3 cells were grown to 80–90% confluency in 100 mm tissue dishes in media containing 5% serum. The cells were then serum starved for 24 hours in media containing 0.1% serum. After pretreatment with […] in PBS for 30 min, the cells were incubated with 5 nM (200 ng/ml) VEGF165, 5 nM (100 ng/ml) bFGF (R&D Systems, Minneapolis, Minn.), or A673 tumor conditioned media in the presence or absence of control or test antibodies for additional 15 min.
The cells were then washed with ice-cold PBS containing 10 mM EDTA, 2 mM sodium fluoride, and 2 mM sodium orthovanadate and lysed in lysis buffer (50 mM Tris, 150 mM NaCl, 1% Nonidet P-40, 0.25% sodium deoxycholate, 0.1% CHAPS, 5 mM EDTA, 1.5 mM MgCl2, 2 mM sodium fluoride, 2 mM sodium orthovanadate, 10% glycerol and protease inhibitors (Complete Protease Inhibitor Cocktail tablets, Boehringer Mannheim)). The lysates were clarified by centrifugation and resulting supernatant used for immunoprecipitation.
The reactions using the chicken anti-FLT-1 antibody were subsequently incubated with a bridging goat anti-chicken antibody (Kirkegaard and Perry Laboratories, Inc.) for 1 h at 4° C. […]

[5] = test system: LS174T colon adenocarcinoma; test: LS174T tumor model in mice; format: in vivo, mouse; details: mice with established tumors
[6] = test system: HT1080 fibrosarcoma; test: In vivo tumor therapy, established HT1080 xenografts; parameters: species or system mouse; details: 100 μg i.p. every other day
Experimental: as §1

[7] = target: T1, VEGF and VEGF:Flk-1 (Homo sapiens, UniProt P15692); test: Indirect and capture ELISA for reactivity with VEGF alone or VEGF associated with sFlk-1; format: binding; details: VEGF alone or VEGF associated with sFlk-1 (VEGF:Flk-1)
T1 sequence (P15692 27-191 isoform P15692-4): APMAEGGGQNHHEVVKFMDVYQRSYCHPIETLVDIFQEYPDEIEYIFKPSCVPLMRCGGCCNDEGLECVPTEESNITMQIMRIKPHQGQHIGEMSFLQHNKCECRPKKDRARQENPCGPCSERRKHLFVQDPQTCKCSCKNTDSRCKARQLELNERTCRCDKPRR
Experimental: The Flk-1/SEAP protein was produced and purified as described by Tessler et al. (1994). Basically, the extracellular domain of Flk-1 (sFlk-1) was produced in Spodoptera frugiperda (Sf9) cells and purified by immunoaffinity techniques utilizing a monoclonal anti-Flk-1 antibody (1A8). sFlk-1 was then biotinylated and bound on avidin-coated plates.
The reactivity was determined as described above for the initial screening.
A capture ELISA was also developed. In the capture ELISA, microtiter plates were-coated overnight at 4° C. with 100 ng of the indicated antibody. […] Streptavidin conjugated to peroxidase (Kirkegaard & Perry Laboratories, Inc.), diluted 1:2000, was used as a second layer and developed.

[8] = test system: VEGFR2 (KDR/Flk-1); test: ELISA of VEGF binding to VEGFR2-coated wells in presence of antibody; parameters: species or system mouse; details: 1000-fold molar excess of antibody over VEGF (1 nM)
[9] = test system: A673 rhabdomyosarcoma; test: Treatment of mice with established A673 tumors; format: in vivo, mouse
[10] = test system: NCI-H358 NSCLC and HT29 colon adenocarcinoma xenografts; test: In vivo localization to human tumor xenografts in tumor-bearing mice; parameters: species or system mouse; details: i.v. 24 hours prior to sacrifice; 3E7 and GV39M bound tumor vascular endothelium, 2C3 tumor stroma
Experimental: Tumors were grown subcutaneously in immunocompromised mice (NCI-H358 NSCLC in nu/nu mice and HT29 colon adenocarcinoma in SCID mice) until the tumor volume was approximately 1 cm^3. 100 μg of unlabeled antibody for studies using SCID mice, or 100 μg of biotinylated antibody for studies using nude mice, was injected intravenously via a tail vein. Twenty four hours later, the mice were anesthetized, perfused with PBS, and tumor and organs including heart, lungs, liver, kidneys, intestines and spleen were collected and snap frozen in liquid nitrogen.
The tumor and organs from each mouse were sectioned on a cryostat and stained for antibody immunohistochemically as above, with the exception that sections from the nude mice were developed using peroxidase labeled streptavidin-biotin complex (Dako, Carpinteria, Calif.) and the sections from the SCID mice were developed using two peroxidase-conjugated secondary antibodies, a goat anti-mouse IgG+IgM followed by a rabbit anti-goat IgG.
100 μg of GV39M and 3E7 or isotype-matched control IgG were injected into SCID mice bearing HT29 human colonic adenocarcinomas. Twenty-four hours later, the mice were sacrificed, exsanguinated and the tumors and tissues were removed.

[11] = target: T2, VEGF (Homo sapiens, UniProt P15692); test: Competition ELISA (epitope groups, cross-blocking); format: binding; details: ELISA cross-blocking studies of 2C3 with A4.6.1
T2 sequence (P15692 27-191 isoform P15692-4): T1 sequence (P15692 27-191 isoform P15692-4)
Experimental: Competition ELISA studies were performed by first labeling the antibodies with peroxidase according to the manufacturer's instructions (EZ-Link Activated Peroxidase, Pierce). […] Approximately 0.5–2.0 μg/ml of peroxidase labeled test antibody was incubated on the plate in the presence of either buffer alone, an irrelevant IgG, or the other anti-VEGF competing antibodies in a 10–100 fold excess.
The assay was done in triplicate at least twice for each combination of labeled and competitor antibody. Two antibodies were considered to be in the same epitope group if they cross-blocked each other's binding by greater than 80%.

[12] = test system: ABAE cells; test: Endothelial cell growth assay (VEGF-mediated growth, MTS); format: cell-based, bovine
Experimental: Adult bovine aortic endothelial (ABAE) cells were plated into 96-well tissue culture plates at 1500 cells/well and grown in the presence of 0.5 nM human VEGF with the addition of the various sample and control antibodies. Control wells received media with or without VEGF.
After 4 days of incubation, the cells were quantified by an MTS (3-(4,5-dimethylthiazol-2-yl)-5-(3-carboxylmethoxyphenyl)-2-(4-sulfophenyl)-2H-tetrazolium, inner salt) conversion assay, where MTS conversion to a formazan is proportional to cell number and can be followed by absorbance at 490 nm (Cell Titer 96 AQueous One Solution Cell Proliferation Assay, Promega, Madison, Wis.). The assay was performed according to the manufacturer's instructions.
Cell growth was estimated by subtracting the MTS conversion in cultures to which VEGF was not added. Results were expressed as a percentage of the MTS conversion in control cultures to which only VEGF was added (Buttke et al., 1993).

[13] = test system: VEGFR2 (KDR/Fc); test: Coprecipitation assay, VEGF with VEGFR2/Fc in solution; format: binding; details: 40 ng VEGF, 200 ng receptor/Fc, F(ab′)2 of antibody
Experimental: 200 ng of soluble forms of VEGFR1 (Flt-1/Fc) or VEGFR2 (KDR/Fc, R&D Systems, Minneapolis, Minn.) were added for a total volume of 50 μl and incubated for 2 hrs. The receptor/Fc constructs were precipitated using Protein A-sepharose beads and the resulting precipitate was washed 4 times with binding buffer.
Reducing sample buffer was added to the pellet and supernatant of each reaction and both were analyzed by 12% SDS-PAGE and transferred to PVDF membranes. […] The soluble receptor/Fc constructs were also detected by using peroxidase-conjugated goat anti-human Fc (Kirkegaard & Perry Laboratories, Inc.)
The receptor/Fc constructs were precipitated by incubation with Protein A sepharose beads. The precipitate was washed and resuspended in reducing sample buffer and separated by 12% SDS-PAGE and transferred to PVDF.

[14] = Blood clearance of radioiodinated 2C3-GUS in mice; format: in vivo, mouse; details: after intravenous injection into mice, 125I-labelled
From the text: 2C3-GUS was radioiodinated with ^125I to a specific activity of 5×10^6 cpm/μg.

[15] = test system: human NCI-H358 NSCLC tumors; test: Localization of 2C3-GUS in SCID mice bearing NCI-H358 tumors; format: in vivo, mouse
[16] = patients having progressive disease before treatment; cited from earlier work
[17] = 100 μg i.p. 2 times per wk from day 1, nu/nu mice

2C3: monoclonal anti-VEGF antibody, IgG2a k, hybridoma ATCC PTA 1595; blocks VEGF binding to VEGFR2 but not VEGFR1
Mean tumor volume after approximately 14 wk of treatment ([1]; 100 μg i.p., prolonged treatment (FIG. 5A)): 84 mm^3
Mean tumor volume at the end of the study, % of initial mean tumor volume ([1]; 50–100 μg i.p. every 3–5 days, approximately 10 weeks of treatment): 30%
Mean tumor weight ([1]; end of the study (day 116), FIG. 5A): 0.054 g
Decrease in mean tumor volume ([1]; start to approximately 14 wk of treatment (FIG. 5A)): approximately 80%
Tumor growth retardation ([2]; 10 μg dose twice per wk): less marked
Final tumor volume [2, 17]: approximately 150 mm^3
Final tumor volume [3, 17]: approximately 150 mm^3
Effect on growth of A673 tumors ([3]; 10 or 1 μg twice per wk, compared to untreated mice): did slow the growth of A673 tumors
Blocking of VEGF-induced phosphorylation of VEGFR2 [4]: block VEGF-induced phosphorylation of VEGFR2
Growth of established tumors [5]: significantly slowed the growth
Tumor growth [6]: arrested the growth of the tumors
Predominant Reactivity [7]: VEGF
VEGF bound to VEGFR2-coated wells, % of amount bound in absence of antibody [8]: ~19%
Growth of established tumors [9]: significantly slowed the growth
Immunohistochemical Reactivity Tumor [10]: 3+
Epitope on VEGF [11]: not cross-reactive
Blocks VEGF-induced proliferation [12]: Yes

2C3 F(ab′)2: F(ab′)2 of 2C3
Blocking of VEGF binding to VEGFR2/Fc in solution [13]: blocked the binding of VEGF to VEGFR2/Fc

2C3-GUS
t½ α [14]: about 6 hours
t½ β [14]: about 25 hours
Localization after i.v. injection ([15]; immunohistochemistry on frozen sections of tumors): specifically localized to tumor vasculature and surrounding tumor stroma
Time of maximal localization after injection ([15]; mouse, in vivo): 24 to 48 h
Staining of normal tissues ([15]; mouse, in vivo, iv): unstained

NC(=O)c1nnn(Cc2cc(Cl)c(C(=O)c3ccc(Cl)cc3)c(Cl)c2)c1N [CAI, carboxyamidotriazole]
Cancer patients with disease stabilization [16]: 49%
